Data published in PMC8777805, “Interactions of Nereistoxin and Its Analogs with Vertebrate Nicotinic Acetylcholine Receptors and Molluscan ACh Binding Proteins” (Marine Drugs, 2022).
Like-named read-outs stand apart in the source and are kept apart here.

What was measured:
[1] = biological target: T1, Aplysia californica AChBP (Aplysia californica, UniProt Q8WSF8); experiment: [3H]-epibatidine scintillation proximity binding assay, Ac AChBP; settings: for IC50: inhibition of [3H]-epibatidine binding, read-out: IC50 ± SEM, Ac BP
T1 construct: made in house
Protocol: (§1) The AChBP proteins were expressed and purified according to Hansen et al.. Determination of compound affinity for an AChBP utilized a modification of the Scintillation Proximity Assay reported previously. Briefly, the AChBP constructs (0.5–1.0 nM final concentration of binding sites) were combined with polyvinyltoluene anti-mouse SPA scintillation beads (0.17 mg/mL final concentration, Perkin Elmer), monoclonal anti-FLAG M2 antibody from mouse 1:8000 dilution (Sigma), and 0.1 M NaPO4 buffer, pH 7.0. This cocktail was distributed to a 96-well plate and incubated with either vehicle (total binding), unknown sample (10 µM final concentration), or a saturating concentration (10 µM) of the known competitive ligand methyllycaconitine to determine the nonspecific binding. The radioligand (±)-[^3H]-epibatidine (Perkin Elmer, 5 nM final concentration) was added to each well with varying the concentrations of competing ligand and allowed to incubate at room temperature for 1 hr. Plates were read on a 1450 MicroBeta TriLux liquid scintillation counter (Wallac) and the output normalized. All measurements were conducted in duplicate a minimum of 3 times. The IC50 values were calculated using GraphPad Prism version 4.02 (GraphPad Software, 2006, San Diego, CA, USA, www.graphpad.com).

rat brain α7 nAChR = biological target: T2, rat brain α7 nAChR (Rattus norvegicus, UniProt Q05941); experiment: [125I]-α-BTX displacement, rat brain membranes; format: binding
T2 construct: from tissue; host or cells: whole rat brain membranes

[2] = biological target: T3, Torpedo electric organ muscle type nAChR (Tetronarce californica, UniProt P02710+P02714+P02718); experiment: [125I]-α-BTX displacement, Torpedo electric organ membranes; format: binding
T3 construct: from tissue; host or cells: Torpedo californica electric organ washed membranes

Lymnaea stagnalis AChBP = biological target: T4, Lymnaea stagnalis AChBP (Lymnaea stagnalis, UniProt P58154); experiment: [3H]-epibatidine scintillation proximity binding assay, Ls AChBP; settings: inhibition of [3H]-epibatidine binding; read-out: IC50 ± SEM, Ls BP
T4 construct: made in house
Protocol: as §1

rat brain α4β2 nAChRs = biological target: T5, rat brain α4β2 nAChRs (Rattus norvegicus, UniProt P09483+P12390); experiment: [3H]-cytisine displacement, rat brain membranes; format: binding
T5 construct: from tissue; host or cells: whole rat brain membranes
Protocol: Rat brain membranes (100 μg of protein) expressing […] α4β2 nAChRs were incubated with 0.5 nM [^3H]-cytisine in a final volume of 500 µL binding saline for 4 h at 5 °C. […] Ten different concentrations of the experimental compound were usually tested in quadruplicate. Nonspecific binding was measured in the presence of 1 mM (S)-nicotine hydrogen tartrate (Sigma-Aldrich). Data were fitted using GraphPad Prism software (Version 4 GraphPad Software, San Diego, CA, USA) by nonlinear regression analyses to a sigmoidal one-site model with variable slope.

[3] = biological target: T6, A. californica BP Y55W mutant (Aplysia californica, UniProt Q8WSF8, Y72W); experiment: [3H]-epibatidine scintillation proximity binding assay, Ac AChBP Y55W mutant; settings: inhibition of [3H]-epibatidine binding; read-out: IC50 ± SEM, Ac BP Y55W
T6 construct: made in house
Protocol: as §1

[4] = biological target: T7, human α4β2 nAChRs expressed in TsA201 cells (Homo sapiens, UniProt P17787+P43681); experiment: FlexStation membrane potential functional assay; format: cell-based; settings: for activation (membrane depolarization) of human α4β2 nAChRs: MeNTX up to 300 µM, relative to 5 µM ACh; for inhibition of ACh activation of human α4β2 nAChRs: response to 5 μM acetylcholine
T7 construct: expressed in transfected cells; host or cells: TsA201 cells
Protocol: TsA201 cells expressing human α4β2 were maintained in media consisting of Dulbecco’s Modified Eagle medium supplemented with 10% FBS, 100 units/mL penicillin and 100 μg/mL streptomycin, 2 mM L-glutamine, 0.5 mg/mL zeocin, and 0.6 mg/mL geneticin. Cells were grown in 75 cm^2 culture flasks, which were housed in a humidified incubator (Fisher Scientific, Atlanta, GA, USA at 37 °C in an atmosphere of 5% CO2. They were grown to around 80–90% confluence after harvesting with 0.25% trypsin and being split weekly at a subcultivation ratio of between 1:6 and 1:10.
Our experimental protocol was based on the initial study of Fitch et al.. Cells were seeded at a density of roughly 5 × 10^4 to 10^5 cells/well in 96-well flat-bottom black wall culture plates coated with 50 μg /mL poly-D-lysine hydrobromide (Sigma-Aldrich, 70–150 kDa) and grown overnight in 100 μL culture medium. A proprietary membrane potential dye obtained from Molecular Devices (San Diego, CA, USA) was prepared by dissolving one bottle of dye into 30 mL of Hanks Saline (pH = 7.4) containing 20 mM HEPES buffer. The cells were incubated with 100 μL of dye for 30 min at 37 °C prior to the robotically controlled concentration-response experiment. Serial dilutions of a compound for dose-response analysis were prepared in 96-well plates by evaporation of a methanolic stock solution and then reconstituted in the appropriate volume of Hanks saline. Fluid transfer and readings were performed by a FlexStation fluorimeter (Molecular Devices). Excitation and emission wavelengths were set to 530 nm and 565 nm with a cutoff of 550 nm. The first 17 s were used as a basal reading.

molluscan AChBPs = experiment: Preincubation with toxin before [3H]-epibatidine addition, AChBPs; format: binding
Protocol: as §1

[5] = biological target: T8, L. stagnalis AChBP C187S mutant (Lymnaea stagnalis, UniProt P58154, C206S); experiment: [3H]-epibatidine scintillation proximity binding assay, Ls AChBP C187S mutant; settings: for IC50: inhibition of [3H]-epibatidine binding
T8 construct: made in house
Protocol: as §1

[6] = system: phencyclidine binding site of Torpedo nAChR ion channel; experiment: [3H]-TCP binding to Torpedo membranes; settings: results not shown
Source text: We have not yet deciphered the mechanism by which this small molecule can be an nAChR antagonist. […] We did observe that NTX inhibited [^3H]-TCP (radiolabelled analog of phencyclidine) binding to the Torpedo membranes, but this only occurred at NTX concentrations that were ~10X higher than were required to inhibit α-BTX binding (results not shown). Since most competitive antagonists are relatively large rigid molecules, elucidating the molecular mechanism by which NTX, an extremely small molecule, acts as an nAChR antagonist merits further investigation.

[7] = set-up: method as in earlier work; settings: cited from earlier work
[8] = rat brain membranes, [125I]-α-BTX displacement, mean of n experiments, read-out: IC50 ± SEM, α7
[9] = [125I]-α-BTX displacement, mean of n experiments, read-out: IC50 ± SEM, Torpedo electric organ
[10] = rat brain membranes, [3H]-cytisine displacement, mean of n experiments, read-out: IC50 ± SEM, α4β2
[11] = single [125I]-αBTX displacement experiment
[12] = single [125I]-αBTX displacement experiment, read-out: α7 IC50 (representative experiment, Figure 6)
[13] = Torpedo IC50 (single experiment, Figure 7 left), 30 min preincubation before BTX
[14] = single [3H]-cytisine displacement experiment
[15] = single [3H]-cytisine displacement experiment, read-out: α4β2 IC50 (individual experiment, Figure 3)

CN(C)C1CSCSC1 [DMA-DT, 5-dimethylamino-1,3-dithiane]
IC50 [1]: 28 ± 0.27 µM | IC50 (rat brain α7 nAChR; [8]): 640 ± 220 µM | IC50 [2, 9]: > 500 µM | IC50 (Lymnaea stagnalis AChBP): 22 ± 2.4 µM | IC50 (rat brain α4β2 nAChRs; [10]): 160 ± 96 µM | IC50 [3]: 41.4 ± 4.4 µM

C[N+](C)(C)C1CSSC1 [MeNTX, N-methylnereistoxin]
affinity of Aplysia californica AChBP less than for NTX ([1]; MeNTX versus NTX): ~ 3.5 fold | IC50 [1]: 260 ± 71 µM | activation (membrane depolarization) of human α4β2 nAChRs [4]: failed to activate | inhibition of ACh activation of human α4β2 nAChRs [4]: inhibited ACh activation | effect of 24 hr preincubation on inhibition of [3H]-epibatidine binding (molluscan AChBPs): failed to detect any effect | IC50 (rat brain α7 nAChR; [8]): 45 ± 2.3 µM | α7 Hillslope (representative experiment, Figure 6) (rat brain α7 nAChR; [11]): -1.0 | IC50 (rat brain α7 nAChR; [12]): 89.4 µM | IC50 [2, 13]: 11.2 µM | IC50 [2, 9]: 9.3 ± 4.9 µM | affinity of Ls C187S mutant greater than for NTX ([5]; MeNTX versus NTX): ~ 4 fold | IC50 [5]: 41 µM | IC50 (Lymnaea stagnalis AChBP): 163 ± 8.7 µM | IC50 (rat brain α4β2 nAChRs; [10]): 120 ± 13 µM | α4β2 Hillslope (individual experiment, Figure 3) (rat brain α4β2 nAChRs; [14]): -1.5 | IC50 (rat brain α4β2 nAChRs; [15]): 121 µM | IC50 [3]: 74 ± 5.2 µM

CN(C)C1CSSC1 [NTX, 4-dimethylamino-1,2-dithiolane, reference compound]
IC50 [1]: 71 ± 1.9 µM | activation (membrane depolarization) of human α4β2 nAChRs [4]: no measurable depolarizing activity | inhibition of ACh activation of human α4β2 nAChRs [4]: inhibited ACh activation | NTX concentrations inhibiting [3H]-TCP binding, higher than required to inhibit α-BTX binding [6]: ~ 10 X | effect of 24 hr preincubation on inhibition of [3H]-epibatidine binding (molluscan AChBPs): failed to detect any effect | IC50 (rat brain α7 nAChR; [8]): 390 ± 8.6 µM | α7 Hillslope (representative experiment, Figure 6) (rat brain α7 nAChR; [11]): -2.6 | IC50 (rat brain α7 nAChR; [12]): 826 µM | IC50 [2, 13]: 254 µM | IC50 [2, 9]: 230 ± 71 µM | IC50 [5]: 160 µM | IC50 (Lymnaea stagnalis AChBP): 140 ± 24 µM | IC50 (rat brain α4β2 nAChRs; [10]): 60 ± 22 µM | α4β2 Hillslope (individual experiment, Figure 3) (rat brain α4β2 nAChRs; [14]): -1.5 | IC50 (rat brain α4β2 nAChRs; [15]): 81.6 µM | IC50 [3]: 110 ± 25 µM | dimethylamino pKa [7]: 7.2

C[N+](C)(C)C1CSCSC1 [TMA-DT, 5-trimethylamino-1,3-dithiane]
IC50 [1]: 20 ± 2 µM | IC50 (rat brain α7 nAChR; [8]): 90 ± 4.3 µM | IC50 [2, 9]: 150 µM | IC50 (Lymnaea stagnalis AChBP): 3.7 ± 0.39 µM | IC50 (rat brain α4β2 nAChRs; [10]): 290 ± 60 µM | IC50 [3]: 18 ± 2.8 µM
